The supplement of paper PMC10307832

Experiments:
Assay in all cases: relative viability (nuclei count vs DMSO), 5 days (fraction); higher = more cells survive
[1] = compound: CC1=C(CC(=O)O)c2cc(F)ccc2/C1=C\c1ccc([S+](C)[O-])cc1 [Sulindac] + COc1cc2c(Oc3ccc(NC(=O)C4(C(=O)Nc5ccc(F)cc5)CC4)cc3F)ccnc2cc1OCCCN1CCOCC1 [Foretinib] (partner 0.25 µM)
Summary of the method: (§1)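 Lung cancer cell lines were seeded in 1536-well plates and dosed by pin tool the next day, with either a single drug or a fixed anchor-drug dose combined with five library-drug doses (not always all listed) spaced in √10 steps. Five days later, one step fixed the cells and stained their nuclei (final 0.05% Triton X-100, 1% formaldehyde, 1 ug/ml Hoechst), and nuclei were counted on 4× images. Relative viability is the nuclei count in treated wells divided by the count in vehicle wells, and each value is the median of duplicate plates.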

[2] = compound: CN[C@@H]1C[C@H]2O[C@@](C)([C@@H]1OC)n1c3ccccc3c3c4c(c5c6ccccc6n2c5c31)C(=O)NC4 [Staurosporine] + CCNC(=O)c1noc(-c2cc(C(C)C)c(O)cc2O)c1-c1ccc(CN2CCOCC2)cc1 [Luminespib] (partner 0.01 µM)
Summary of the method: as §1

[3] = compound: CN[C@@H]1C[C@H]2O[C@@](C)([C@@H]1OC)n1c3ccccc3c3c4c(c5c6ccccc6n2c5c31)C(=O)NC4 [Staurosporine] + COc1cc2c(Oc3ccc(NC(=O)C4(C(=O)Nc5ccc(F)cc5)CC4)cc3F)ccnc2cc1OCCCN1CCOCC1 [Foretinib] (partner 0.25 µM)
Summary of the method: as §1

[4] = compound: O=c1[nH]cc(F)c(=O)[nH]1 [5-Fluorouracil] + NC(=O)Nc1cc(-c2cccc(F)c2)sc1C(=O)N[C@H]1CCCNC1 [AZD7762] (partner 0.2 µM)
Summary of the method: as §1

Cell Line	relative viability ([1]; first compound 0.08 µM)	relative viability ([1]; first compound 0.253 µM)	relative viability ([1]; first compound 0.8 µM)	relative viability ([1]; first compound 2.53 µM)	relative viability ([1]; first compound 8 µM)	relative viability ([2]; first compound 0.005 µM)	relative viability ([2]; first compound 0.01581 µM)	relative viability ([2]; first compound 0.05 µM)	relative viability ([2]; first compound 0.1581 µM)	relative viability ([2]; first compound 0.5 µM)	relative viability ([3]; first compound 0.005 µM)	relative viability ([3]; first compound 0.01581 µM)	relative viability ([3]; first compound 0.05 µM)	relative viability ([3]; first compound 0.1581 µM)	relative viability ([3]; first compound 0.5 µM)	relative viability ([4]; first compound 0.02 µM)	relative viability ([4]; first compound 0.2 µM)	relative viability ([4]; first compound 0.6325 µM)	relative viability ([4]; first compound 2 µM)
NCI-H838	1.05	1.19	1.03	1.06	1.22	0.247	0.135	0.138	0.107	0.113	0.51	0.228	0.208	0.185	0.0995	0.915	0.684	0.654	0.642
NCI-H23	0.879	–	0.782	0.607	1.03	0.215	0.204	0.181	0.163	0.156	0.898	–	0.43	0.258	0.387	0.142	0.208	0.163	0.172
NCI-H1395	0.845	1.02	0.949	0.906	1.1	0.613	0.507	0.349	0.318	0.346	0.943	0.812	0.453	0.416	0.27	0.395	0.405	0.459	0.385
NCI-H647	1.25	1.2	1.05	1.25	1.28	0.128	0.174	0.0674	0.0695	0.0608	0.886	0.709	0.535	0.143	0.0766	0.448	0.588	0.402	0.333
